pKd: −log10 of the molar value.
Target: T1, PKA regulatory subunit R1Alpha (R1A) (Rattus norvegicus, UniProt P09456)
T1 construct: gene Prkar1a; endogenous detergent-insoluble R1A clusters in P30 rat CA1 brain sections
Assay: saturation equilibrium binding in fixed brain sections, confocal fluorescence microscopy

T1 sequence (P09456 2-381): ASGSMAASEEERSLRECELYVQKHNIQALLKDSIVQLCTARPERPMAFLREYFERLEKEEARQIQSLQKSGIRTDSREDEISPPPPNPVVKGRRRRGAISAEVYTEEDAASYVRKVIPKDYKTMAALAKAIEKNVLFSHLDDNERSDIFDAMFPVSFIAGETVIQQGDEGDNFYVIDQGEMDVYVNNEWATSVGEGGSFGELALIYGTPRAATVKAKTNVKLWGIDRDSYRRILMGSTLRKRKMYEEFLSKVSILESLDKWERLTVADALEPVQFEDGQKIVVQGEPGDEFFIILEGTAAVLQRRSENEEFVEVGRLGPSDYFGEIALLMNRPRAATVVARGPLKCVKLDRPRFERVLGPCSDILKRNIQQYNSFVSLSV

Nc1ncnc2c1nc(SCC(=O)Nc1ccc3c(c1)C(=O)OC31c3ccc(O)cc3Oc3cc(O)ccc31)n2[C@@H]1O[C@@H]2COP(=O)(O)O[C@H]2[C@H]1O [SAF-cAMP, 8-(5-thioacetamidofluorescein)-adenosine 3′,5′-cyclic monophosphate]
pKd: 7.63

From article PMC10570460 (Frontiers in Cell and Developmental Biology, 2023)
